Assay results published in ChEMBL document CHEMBL5150076, “Discovery of Novel Orally Bioavailable Triazoles with Potent and Broad-Spectrum Antifungal Activity In Vitro and In Vivo” (J Med Chem, 2022).
Converted amounts (≈) assume the structure as drawn.

Tests used:
Format in all cases: functional
Cryptococcus neoformans = experiment: Antifungal activity against Cryptococcus neoformans H99 incubated for 72 hrs by microbroth dilution method
Candida albicans = experiment: Antifungal activity against Candida albicans SC5314 incubated for 24 hrs by microbroth dilution method
Aspergillus fumigatus = experiment: Antifungal activity against Aspergillus fumigatus 7544 incubated for 48 hrs by microbroth dilution method

Compound	MIC (Cryptococcus neoformans) [µg/mL]	MIC (Candida albicans) [µg/mL]	MIC (Aspergillus fumigatus) [µg/mL]
CC(=O)c1ccc(-n2cc([C@H](C)[C@](O)(Cn3cncn3)c3ccc(F)cc3F)nn2)cc1	0.25 (≈ 0.57 µM)	0.125 (≈ 0.285 µM)	> 64
C[C@@H](c1cn(-c2cccnc2)nn1)[C@](O)(Cn1cncn1)c1ccc(F)cc1F	2 (≈ 5.03 µM)	0.25 (≈ 0.629 µM)	32 (≈ 80.5 µM)
C[C@@H](c1cn(-c2ccc(OCc3ccc(C(C)(C)C)cc3)cc2)nn1)[C@](O)(Cn1cncn1)c1ccc(F)cc1F	0.5 (≈ 0.895 µM)	0.125 (≈ 0.224 µM)	> 64
C[C@@H](c1cn(-c2ccc(F)c(F)c2)nn1)[C@](O)(Cn1cncn1)c1ccc(F)cc1F	0.125 (≈ 0.289 µM)	0.0625 (≈ 0.145 µM)	8 (≈ 18.5 µM)

Other lines, results leading:

MIC (Cryptococcus neoformans) [µg/mL]	MIC (Candida albicans) [µg/mL]	MIC (Aspergillus fumigatus) [µg/mL]	Compound
0.0156 (≈ 0.0362 µM)	0.0625 (≈ 0.145 µM)	4 (≈ 9.28 µM)	C[C@@H](c1cn(-c2ccc(Cl)cc2)nn1)[C@](O)(Cn1cncn1)c1ccc(F)cc1F
0.125 (≈ 0.289 µM)	0.125 (≈ 0.289 µM)	2 (≈ 4.63 µM)	C[C@@H](c1cn(-c2c(F)cccc2F)nn1)[C@](O)(Cn1cncn1)c1ccc(F)cc1F
0.125 (≈ 0.26 µM)	0.0625 (≈ 0.13 µM)	32 (≈ 66.6 µM)	C[C@@H](c1cn(-c2ccc(OC(F)(F)F)cc2)nn1)[C@](O)(Cn1cncn1)c1cc(F)ccc1F
0.0625 (≈ 0.126 µM)	0.125 (≈ 0.252 µM)	8 (≈ 16.1 µM)	CCCCCCOc1ccc(-n2cc([C@H](C)[C@](O)(Cn3cncn3)c3ccc(F)cc3F)nn2)cc1
0.0625 (≈ 0.151 µM)	0.0625 (≈ 0.151 µM)	4 (≈ 9.65 µM)	C[C@@H](c1cn(-c2ccc(F)cc2)nn1)[C@](O)(Cn1cncn1)c1ccc(F)cc1F
0.125 (≈ 0.29 µM)	0.125 (≈ 0.29 µM)	32 (≈ 74.3 µM)	C[C@@H](c1cn(-c2ccc(Cl)cc2)nn1)[C@](O)(Cn1cncn1)c1cc(F)ccc1F
